From patent US10934258B2, “Materials for use in an aqueous organic redox flow battery” (Utah State University, priority 2016, dated 2021)
Values after ≈ are worked out from the molar mass of the structure shown. Values joined by “and” are separate entries in the source; they are usually repeats but may differ in a detail not shown here. Equal values may be shown once.

Columns and labels:
[1] = RDE linear sweep voltammetry with Levich and Tafel analysis; type: physicochemical; settings: 1.0 mM in 0.5 M NaCl
Method: Electrochemical RDE studies: All linear sweep voltammetry (LSV) studies were conducted using a Gamry 1000E potentiostat in a three-electrode configuration, a glassy carbon disk working electrode (5 mm Teflon encased glassy carbon disk, Pine Research Instrumentation) along with a glassy carbon counter electrode and a Ag/AgCl reference electrode same as used in CV studies. Before data collection, the disk electrode was prepared using the procedure described in the CV studies. The electrode was then rotated at from 300 to 2400 rpm with an increment of 300 rpm, which was controlled by a Pine MSR rotator system. LSV scans were recorded at a rate of 5 mV/s from 0.3 V to 0.8 V vs NHE. At each rotation rate, the LSV were recorded 3 times to ensure repeatability. The limiting currents (i.e. the mass transport-limited current intensity) were taken at 0.7 V vs NHE for FcNCl and plotted over the square root of the rotation rate (rad/s). The data were fitted to yield a straight Levich plot, with the slope defined by the Levich equation (equation 1 below), where n=1 for one electron process, Faraday's constant F=96485 C/mol, electrode area A=0.1935 cm^2, FcNCl concentration Co=1.0 mM, D is diffusion coefficient, kinematic viscosity n=0.009 cm^2/s for 0.5 M NaCl solution. The calculations yielded the diffusion coefficients of FcNCl as 3.25×10^−6 cm^2/s. A plot of overpotential versus log10(iK) was constructed for the LSV data collected at […] for FcNCl where iK is the kinetic current for the oxidation of FcNCl. […] Levich plot slope=0.620nFACOD^2/3v^−1/6 (equation 1) i0=FACOk0 (equation 2)
Electrochemical RDE studies: Linear sweep voltammetry (LSV) experiments were conducted using a Gamry 1000E potentiostat with a three-electrode system. A 5 mm rotating glassy carbon disk encased in Teflon served as the working electrode. A glassy carbon rod was used as the counter electrode. A Ag/AgCl wire served as the reference electrode. The working electrode was cleaned using the same method as in the CV experiments. During the experiments, the working electrode rotated from 300 rpm to 2400 rpm at increments of 300 rpm. Three scans at each rotation rate were collected to ensure accuracy. (NPr)2V: LSV scans were conducted at a rate of 5 mV/s from 0.1 V to −1.2 V versus NHE. The limiting currents (mass transport-limited current intensity) at each rotation rate were recorded at −0.57 V and −0.95 V versus NHE. […] The slopes of these fitted lines are defined by the Levich equation, Levich Plot Slope=0.620nFAC0D^2/3v^−1/6 (equation 1)
[…] Plots of overpotential versus log10(ik) were constructed from the 2400 rpm LSV, where ik is the kinetic current of each reduction of (NPr)2V. The x-intercept of the fitted Tafel plot represents the log of the exchange current i0 that is defined by: i0=FAC0k^0 (equation 2)
where F, A, and C0 are defined above, and k^0 represents the electron transfer rate constant.
(NPr)(SPr)V, (Me)(NPr)V, (SPr)2V, and [FcN^Et]Br: LSV scans were collected and analyzed using the same techniques described for (NPr)2V.

[2] = Conductivity of the electrolyte solutions; type: physicochemical; parameters: electrolyte conductivity: unit not given here
Method: Chemicals and Materials. […] Deionized water was purged overnight using N2 before use. All experimental operations were conducted under a N2 atmosphere. […] UV-Vis was collected using an Ocean Optic spectrometer. Elemental analysis was done at Atlantic Microlab.

[3] = Solubility by preparing a super-saturated solution; settings: for solubility: thermodynamic from solid
Method: Chemicals and Materials. All chemicals were purchased from Aldrich or TCI, stored in an Argon glovebox, and used directly. Solubility of substituted ferrocene compounds was measured in water by preparing a super-saturated solution in a volumetric cylinder. Deionized water was purged overnight using N2 before use. All experimental operations were conducted under a N2 atmosphere. Conductivity of the electrolyte solutions was measured using a Mettler Toledo conductivity meter at R.T. NMR studies were conducted using a Bruker 500 MHz NMR spectrometer. UV-Vis was collected using an Ocean Optic spectrometer. Elemental analysis was done at Atlantic Microlab.
Calculation of theoretical energy density: The theoretical energy density of the FcNCl/MV AORFB was calculated using equation 3 below, where n is the number of electrons involved into the cell reaction, C is the concentration of active materials, F is Faraday constant, 26.8 Ah/mol, V is the cell voltage, and 2 represents a factor considering both volumes of anolyte and catholyte. Solubility of FcNCl and MV was measured in water respectively by preparing a super-saturated solution. Similar solubility tests in water were applied for ferrocenecarboxylic acid, 1-1′-ferrocenedicarboxilic acid, ferrocenecarboxylic acid, and 1,1′-ferrocenedimethanol. Energy density (Wh/L)=nCFV/2 (equation 3)

[4] = Cyclic and square wave voltammetry (redox potentials); type: physicochemical; settings: for redox potential (redox wave in cyclic voltammogram) / Exp. E1/2, first reduction / Exp. E1/2, second reduction: 4 mM in 0.5 M NaCl; for redox / reversible oxidation potential of catholyte: electrolyte not stated; for Exp. E1/2, first reduction: first redox couple; for Exp. E1/2, second reduction: second redox couple
Method: Electrochemical Cyclic voltammetry (CV) studies. All electrochemical CV experiments were carried out in 0.5 M NaCl electrolyte solutions. Cyclic voltammetry experiments were performed with a Gamry 1000E potentiostat. All potentials were referenced to NHE according to the known MV^2+/1+ redox couple (−0.45 V vs NHE). The working electrode (1 mm PEEK-encased glassy carbon, Cypress Systems EE040) was polished using Al2O3(BAS CF-1050, dried at 150° C. under vacuum) suspended in deionized H2O, then rinsed with deionized H2O and dried with an air flow. The reference electrode was a silver wire coated with a layer of AgCl and suspended in a solution of 0.5 M NaCl electrolyte. A glassy carbon rod (Structure Probe, Inc.) was used as the counter electrode.
Cyclic and square wave voltammetry studies: All experiments were conducted in an […], 0.5 M NaCl aqueous solution, and performed with a Gamry 1000E potentiostat. A 1 mm PEEK encased glassy carbon disk was used as the working electrode. The working electrode was polished with 0.05 micron Al2O3 powder and rinsed with deionized H2O. A glassy carbon rod was used as the counter electrode. A silver wire coated with AgCl and suspended in 3.0 M KCl electrolyte was used as the reference electrode.
The redox potentials were calculated directly versus MV which was derived from the Born-Haber method. This calculation predicts the redox potential of the viologen by comparing it to the experimentally determined potentials for MV. Square wave voltammetry was employed to most accurately measure E1/2 for the two reductions of viologen compounds (FIG. 42). The calculation of the theoretical redox potential vs MV can be simplified as shown below: […]

[5] = known value, potential reference; cited from earlier work

Compound	solubility ([3]; water) [mM]	redox potential (redox wave in cyclic voltammogram) [4]	diffusion constant, D, first reduction ([1]; Levich)	electron transfer rate constant, k^0, first reduction ([1]; Tafel)	solubility in water, [C] [3] [mM]	Exp. E1/2, first reduction [4] [V vs. NHE]	Exp. E1/2, second reduction [4] [V vs. NHE]	further results
C[N+](C)(C)C[c-]1cccc1.[Cl-].[Fe+2].c1cc[cH-]c1 [FcNCl, (ferrocenylmethyl)trimethylammonium chloride]	~4000	0.60 V vs NHE	–	–	–	–	–	diffusion coefficient (oxidation) ([1]; Levich): 3.25×10^−6 cm^2/s and 3.74×10^−6 cm^2/s; electron transfer rate constant k0 (oxidation) ([1]; Tafel): 2.29e-05 cm/s and 3.66e-05 cm/s; exchange current i0 ([1]; Tafel X-intercept): 0.7 μA; electrolyte conductivity ([2]; 0.5 M in 2.0 M NaCl): 135
CC1(C)CC([N+](C)(C)CCC[N+](C)(C)C)CC(C)(C)N1O [4-N^NPr-TEMPO, N^1, N^1, N^1, N^3, N^3,2,2,6,6-nonamethyl-N^3-(piperidinyloxy)propane-1,3-bis(ammonium) dichloride]	2300	–	–	–	–	–	–	redox / reversible oxidation potential of catholyte [4]: 1.06 V vs NHE
C[n+]1ccc(-c2cc[n+](CCC[N+](C)(C)C)cc2)cc1.[Cl-].[Cl-].[Cl-] [(Me)(NPr)V, 1′-methyl-4′-pyridinium-1-[3-(trimethylaminium)propyl]-4-pyridinium trichloride]	–	–	5.40 × 10^−6 cm^2/s	2.39e-05 cm/s	1800	−0.39	−0.78	diffusion constant, D, second reduction ([1]; Levich): 5.29 × 10^−6 cm^2/s; electron transfer rate constant, k^0, second reduction ([1]; Tafel): 1.84e-05 cm/s; solubility in H2O [3]: 1800 mM
disodium (ferrocenyl)sulfurtrioxide [FcS]	–	~0.77 V vs NHE and 1.0 V vs NHE	–	–	–	–	–	–
C[N+](C)(C)CCC[n+]1ccc(-c2cc[n+](CCCS(=O)(=O)[O-])cc2)cc1.[Br-].[Br-] [(NPr)(SPr)V, 1′-[3-(trimethylammonium)propyl]-4′-pyridinium-1-[3-sulfonatopropyl]-4-pyridinium dibromide]	–	–	4.96 × 10^−6 cm^2/s	3.5e-05 cm/s	1600	−0.37	−0.74	diffusion constant, D, second reduction ([1]; Levich): 5.04 × 10^−6 cm^2/s; electron transfer rate constant, k^0, second reduction ([1]; Tafel): 2.09e-05 cm/s; solubility in H2O [3]: 1600 mM
C[N+](C)(C)CCC[n+]1ccc(-c2cc[n+](CCC[N+](C)(C)C)cc2)cc1.[Br-].[Br-].[Br-].[Br-] [(NPr)2V, 1,1′-bis[3-(trimethylamonium)propyl]-4,4′-bipyridinium, tetrabromide]	–	–	3.88×10^−6 cm^2/s	4.32e-06 cm/s and 4.32e-05 cm/s	1600	−0.35	−0.72	diffusion constant, D, second reduction ([1]; Levich): 3.84×10^−6 cm^2/s; electron transfer rate constant, k^0, second reduction ([1]; Tafel): 2.46e-06 cm/s and 2.46e-05 cm/s; solubility in H2O [3]: 1600 mM; effective redox potential (average of the two reductions) ([4]; average of −0.35 and −0.72 V): −0.54 V
C[n+]1ccc(-c2cc[n+](C)cc2)cc1 [MV, methyl viologen, reference compound]	–	–	2.57 × 10^−5 cm^2/s	0.00028 cm/s	2500	−0.45	−0.76	solubility in 2.0 M NaCl solution ([3]; 2.0 M NaCl solution): above 2.0 M; MV^2+/1+ redox couple used as reference [5]: −0.45 V vs NHE
CC(C[N+](C)(C)C[c-]1cccc1)[N+](C)(C)C.[Br-].[Br-].[Fe+2].c1cc[cH-]c1 (centres unmarked) [FcN2, N^1-ferrocenylmethyl-N^1, N^1, N^2, N^2, N^2-pentamethylpropane-1,2-diaminium dibromide]	–	0.62 V vs NHE	–	–	–	–	–	–
C[N+](C)(C)CCC[c-]1cccc1.[Cl-].[Fe+2].c1cc[cH-]c1 [prop-FcNCl, (ferrocenylpropyl)trimethylammonium chloride]	~2200	–	–	–	–	–	–	–
CC1(C)CC([N+](C)(C)C)CC(C)(C)N1[O].[Cl-] [4-N^Me-TEMPO, N, N, N, 2,2,6,6-Heptamethylpiperidinyloxy-4-ammonium chloride]	–	–	–	–	–	–	–	solubility in H2O [3]: 2500 mM; redox / reversible oxidation potential of catholyte [4]: 1.06 V vs NHE
CC[N+](C)(C)C[c-]1cccc1.[Br-].[Fe+2].c1cc[cH-]c1 [[FcN^Et]Br, (ferrocenylmethyl)ethyldimethylammonium bromide]	3750	0.60 V vs NHE	–	–	–	–	–	–
[Br-].[Br-].[Zn+2] [ZnBr2, reference compound]	–	−1.2 V vs NHE	–	–	–	–	–	–
[I-].[K+] [KI, reference compound]	–	–	–	–	–	–	–	redox / reversible oxidation potential of catholyte [4]: 0.65 V vs NHE
O=S(=O)([O-])CCC[n+]1ccc(-c2cc[n+](CCCS(=O)(=O)[O-])cc2)cc1 [(SPr)2V, 1,1′-bis[3-sulfonatopropyl]-4,4′-bipyridinium]	2000 (≈ 801 mg/mL)	–	3.26×10^−6 cm^2/s	1.49e-05 cm/s	2000 (≈ 801 mg/mL)	−0.43	−0.79	diffusion constant, D, second reduction ([1]; Levich): 2.81 × 10^−6 cm^2/s; electron transfer rate constant, k^0, second reduction ([1]; Tafel): 3.96e-05 cm/s; conductivity ([2]; 0.6 M in 1.5 M KCl): 103.2 mS/cm; solubility ([3]; saline or isotonic): 1700 mM (≈ 681 mg/mL)
